Assay results as given in ChEMBL document CHEMBL1134457, “Medicinal chemistry of neuronal voltage-gated sodium channel blockers” (J Med Chem, 2001).
pIC50: −log10 of the molar value.

Target: GABA-A receptor; anion channel
Test: Anticonvulsant activity against gamma-aminobutyric acid receptor
Format: functional
Conditions: not given

Structure (SMILES)	pIC50
CCC1(Cc2ccccc2)CCCNC1=O (stereo unspecified)	3.31

Tested on: Gerbillinae
Test: Neuroprotective activity was determined in the rat middle cerebral artery occlusion (MCAO) model of focal stroke in gerbil
Format: functional
Conditions: read-out: MED

Structure (SMILES)	minimal effective dose [mg/kg]
COc1ccc(/N=C(\N)Nc2ccc3c4c(cccc24)CC3)c2ccccc12	30

Tested on: not listed separately
Test: Effective dose was determined after intraperitoneal administration in the MES model
Format: functional
Conditions: Rattus norvegicus, ip

Structure (SMILES)	ED50 [mg/kg]
Clc1ccc(-c2c[nH]nc2N2CCOCC2)cc1	47

Tested on: not listed separately
Test: In vivo toxic dose in rotarod assay
Format: ADME, organism-based
Conditions: rat

Structure (SMILES)	TD50 [mg/kg]
COC(=O)[C@@H]1C(=O)C=C(Nc2ccc(Cl)cc2)C[C@H]1C	255
CCN(CC)CC(=O)Nc1c(C)cccc1C [LIDOCAINE]	41
NC(=O)N1c2ccccc2C=Cc2ccccc21 [CARBAMAZEPINE]	27.4
COC(=O)c1[nH]cc(-c2ccc(Br)cc2)c1N1CCOCC1	> 500
Nc1nnc(-c2cccc(Cl)c2Cl)c(N)n1 [LAMOTRIGINE]	84
Nc1cnc(-c2cc(Cl)cc(Cl)c2Cl)c(N)n1 [ELPETRIGINE]	18.8
Nc1ncnnc1-c1cc(Cl)cc(Cl)c1Cl	40

Species: Rattus norvegicus
Test: Minimum effective dose was determined in the rat middle cerebral artery occlusion (MCAO) model of focal stroke […]
Format: functional
Conditions: read-out: MED

Structure (SMILES)	minimal effective dose [mg/kg]
CN1CCN(c2ncc(-c3cc(Cl)cc(Cl)c3Cl)c(N)n2)CC1 [SIPATRIGINE]	60

Species: Rattus norvegicus
Test: Neuroprotective activity was determined in the rat middle cerebral artery occlusion (MCAO) model of focal stroke
Format: functional
Conditions: read-out: MED

Structure (SMILES)	minimal effective dose [mg/kg]
CN1CCN(c2ncc(-c3cc(Cl)cc(Cl)c3Cl)c(N)n2)CC1 [SIPATRIGINE]	30
O=C1NC(=O)C(c2ccccc2)(c2ccccc2)N1 [PHENYTOIN]	200
Nc1nc2ccc(OC(F)(F)F)cc2s1 [RILUZOLE]	4
Nc1ncc(-c2cc(Cl)cc(Cl)c2Cl)c(N)n1	20
N=c1sc2ccccc2n1CCN1CCC(c2ccc(F)cc2)CC1	16
Cc1nc(OCCCCCN2CCCCC2)cc(-c2ccc(F)cc2)n1 [ENECADIN]	0.5
NC(=O)N1c2ccccc2C=Cc2ccccc21 [CARBAMAZEPINE]	2
Nc1nnc(-c2cccc(Cl)c2Cl)c(N)n1 [LAMOTRIGINE]	20
CC(Cc1ccccc1)(NC(=O)CN)c1ccccc1 (stereo unspecified) [REMACEMIDE]	10
NS(=O)(=O)Cc1noc2ccccc12 [ZONISAMIDE]	100
CN(c1nc2ccccc2s1)C1CCN(C[C@H](O)COc2ccc(F)c(F)c2)CC1 [LUBELUZOLE]	0.3
CCOc1ccccc1OCCN1CCC2(CC)c3cccc(O)c3CC1C2(C)C (stereo unspecified)	2
OC(COc1ccccc1)CN1CCC(c2ccc(Oc3ccccc3)cc2)CC1 (stereo unspecified)	3

Tested on: Rattus norvegicus
Test: In vivo anticonvulsant activity to prevent seizures from maximum electroshock (MES) […]
Format: functional
Conditions: not given

Structure (SMILES)	ED50 [mg/kg]
Nc1nccc2c1nnn2Cc1c(F)cccc1F	6.3
COC(=O)[C@@H]1C(=O)C=C(Nc2ccc(Cl)cc2)C[C@H]1C	26.2
CC(NCc1ccc(OCc2cccc(F)c2)cc1)C(N)=O (stereo unspecified)	4.1
N=c1sc2ccccc2n1CCN1CCC(c2ccc(F)cc2)CC1	3.9
Cc1cccc(C)c1NC(=O)/C=C1/SCC(=O)N1C	2.8
CCN(CC)CC(=O)Nc1c(C)cccc1C [LIDOCAINE]	87
Cc1cccc(C)c1OCC(C)N (stereo unspecified) [MEXILETINE]	2
CC1(C)O[C@@H]2[C@@H](CO[C@@]3(COS(N)(=O)=O)OC(C)(C)O[C@@H]23)O1 [TOPIRAMATE]	39
NC(=O)N1c2ccccc2C=Cc2ccccc21 [CARBAMAZEPINE]	3.4
NC(=O)NNCc1ccc(Oc2ccc(F)cc2)cc1	4.2
COC(=O)c1[nH]cc(-c2ccc(Br)cc2)c1N1CCOCC1	2.5
Nc1nnc(-c2cccc(Cl)c2Cl)c(N)n1 [LAMOTRIGINE]	2.2
CN(C)CCOc1ccccc1-c1nc(-c2ccccc2)no1	2.8
NC(=O)C12NC(Cc3ccccc31)c1ccccc12 (stereo unspecified)	8.9
Cc1cccc(C)c1NC(=O)c1ccc(N)cc1 [AMELTOLIDE]	13
Nc1cnc(-c2cc(Cl)cc(Cl)c2Cl)c(N)n1 [ELPETRIGINE]	1.13
C[C@H](C(N)=O)N1CCC23CCCC[C@@H]2[C@@H]1Cc1ccc(OCc2cccc(F)c2)cc13 (single isomer, unassigned)	18.1
Nc1ncnnc1-c1cc(Cl)cc(Cl)c1Cl	1.7

Tested on: Rattus norvegicus
Test: In vivo anticonvulsant activity to prevent seizures from maximum electroshock (MES) […] after (i.v.) administration
Format: functional
Conditions: iv

Structure (SMILES)	ED50 [mg/kg]
O=C1NC(=O)C(c2ccccc2)(c2ccccc2)N1 [PHENYTOIN]	10

Species: Rattus norvegicus
Test: Minimum effective dose (MED) was determined in the rat middle cerebral artery occlusion (MCAO) model of focal stroke […]
Format: functional
Conditions: read-out: MED

Structure (SMILES)	minimal effective dose [mg/kg]
CC(Cc1ccccc1)(NC(=O)CN)c1ccccc1 (stereo unspecified) [REMACEMIDE]	100

Species: Rattus norvegicus
Test: Neuroprotective activity was determined in the rat middle cerebral artery occlusion (MCAO) model of focal stroke using rotarod assay
Format: functional
Conditions: read-out: MED

Structure (SMILES)	minimal effective dose [mg/kg]
Nc1nc2ccc(OC(F)(F)F)cc2s1 [RILUZOLE]	30

Tested on: not listed separately
Test: Potency against voltage-gated calcium channel [45[Ca2+]]
Format: functional
Conditions: not given

Structure (SMILES)	pIC50
CCC(C)c1ccc(N2CCCN(c3ccc(C(C)CC)cc3)C2=N)cc1 (stereo unspecified)	6.41

Target: not listed separately
Test: Inhibition of [3H]BTX binding to cardiac voltage-gated sodium channel
Set-up: species or system Rattus norvegicus
Conditions: not given

Structure (SMILES)	pIC50
Fc1ccc(C(c2ccc(F)cc2)N2CCN(C/C=C/c3ccccc3)CC2)cc1 [FLUNARIZINE]	6.46
O=C1NC(=O)C(c2ccccc2)(c2ccccc2)N1 [PHENYTOIN]	4.40
Cc1cccc(C)c1NC(=O)/C=C1/SCC(=O)N1C	4.60
CCN(CC)CC(=O)Nc1c(C)cccc1C [LIDOCAINE]	3.95
Cc1cccc(C)c1N1C(=O)c2ccc(N)cc2C1=O	6.96
NC(=O)N1c2ccccc2C=Cc2ccccc21 [CARBAMAZEPINE]	3.88
Cc1ccc(-c2nc(C)c(CN3CCN(C(c4ccc(F)cc4)c4ccc(F)cc4)CC3)[nH]2)cc1	6.92
COc1ccc(CCN(C)CCCC(C#N)(c2ccc(OC)c(OC)c2)C(C)C)cc1OC (stereo unspecified)	5.60
CC1CCCC(C)N1CCCNC(=O)C(c1ccccc1)c1ccccc1 (stereo unspecified)	7.34
COc1ccccc1OCCNCC(O)COc1cccc2[nH]c3ccccc3c12 (stereo unspecified) [CARVEDILOL]	5.77
Nc1nnc(-c2cccc(Cl)c2Cl)c(N)n1 [LAMOTRIGINE]	3.94
CN(c1nc2ccccc2s1)C1CCN(C[C@H](O)COc2ccc(F)c(F)c2)CC1 [LUBELUZOLE]	6.55
CCCN(c1ccncc1)n1ccc2ccccc21 [BESIPIRDINE]	5.26
NC1CCc2c(-c3ccccc3)[nH]c3cccc1c23 (stereo unspecified)	5.96
COc1ccc(CN2CCN(C(c3ccc(F)cc3)c3ccc(F)cc3)CC2)c(OC)c1OC [LOMERIZINE]	7.59
Cc1cccc(C)c1NC(=O)Nc1ccncc1	4.54

Target: not listed separately
Test: Inhibition of [3H]-BTX binding to cardiac voltage-gated sodium channel
Format: functional, Rattus norvegicus
Conditions: not given

Structure (SMILES)	pIC50
Cc1nc(OCCCCCN2CCCCC2)cc(-c2ccc(F)cc2)n1 [ENECADIN]	6.00

Tested on: not listed separately
Test: Inhibition of veratridine-induced guanidine flux in cardiac voltage-gated sodium channel (veratridine block vs. Na release)
Format: functional, tissue-based, Rattus norvegicus, Heart
Conditions: not given

Structure (SMILES)	pIC50
CN1CCN(c2ncc(-c3cc(Cl)cc(Cl)c3Cl)c(N)n2)CC1 [SIPATRIGINE]	5.28
Fc1ccc(C(c2ccc(F)cc2)N2CCN(C/C=C/c3ccccc3)CC2)cc1 [FLUNARIZINE]	6.92
O=C1NC(=O)C(c2ccccc2)(c2ccccc2)N1 [PHENYTOIN]	4.68
Nc1nc2ccc(OC(F)(F)F)cc2s1 [RILUZOLE]	5.40
Nc1ncc(-c2cc(Cl)cc(Cl)c2Cl)c(N)n1	5.80
CCN(CC)CC(=O)Nc1c(C)cccc1C [LIDOCAINE]	4.01
Cc1nc(OCCCCCN2CCCCC2)cc(-c2ccc(F)cc2)n1 [ENECADIN]	5.11
NC(=O)N1c2ccccc2C=Cc2ccccc21 [CARBAMAZEPINE]	4.52
Cc1ccc(-c2nc(C)c(CN3CCN(C(c4ccc(F)cc4)c4ccc(F)cc4)CC3)[nH]2)cc1	6.52
COc1ccc(CCN(C)CCCC(C#N)(c2ccc(OC)c(OC)c2)C(C)C)cc1OC (stereo unspecified)	5.60
CC1CCCC(C)N1CCCNC(=O)C(c1ccccc1)c1ccccc1 (stereo unspecified)	5.30
COc1ccccc1OCCNCC(O)COc1cccc2[nH]c3ccccc3c12 (stereo unspecified) [CARVEDILOL]	6.51
CCC(C)c1ccc(N2CCCN(c3ccc(C(C)CC)cc3)C2=N)cc1 (stereo unspecified)	7.22
Nc1nnc(-c2cccc(Cl)c2Cl)c(N)n1 [LAMOTRIGINE]	4.68
COc1ccc(/N=C(\N)Nc2ccc3c4c(cccc24)CC3)c2ccccc12	5.79
OC(COc1ccccc1)CN1CCC(c2ccc(Oc3ccccc3)cc2)CC1 (stereo unspecified)	6.66
CCCN(c1ccncc1)n1ccc2ccccc21 [BESIPIRDINE]	4.52
NC1CCc2c(-c3ccccc3)[nH]c3cccc1c23 (stereo unspecified)	5.39
